The values that follow come from PMC4898786 (Nature, 2016).

For test [1], the target named is ts3 SERT (Y110A, I291A, T439S) (Homo sapiens, UniProt P31645, C554A/C580A/C622A/I291A/T439S/Y110A). The test can be described thus: [14C]5-HT uptake in transfected HEK293 cells, Michaelis-Menten. The format is cell-based.
In the next test the target is ts2 SERT (I291A, T439S) (Homo sapiens, UniProt P31645, C554A/C580A/C622A/I291A/T439S).

For the compound `NCCc1c[nH]c2ccc(O)cc12` [serotonin, 5-hydroxytryptamine], the serotonin transport activity result in test [1] is “No detectable transport activity”. Also, the “Vmax of serotonin transport” value on ts2 SERT (I291A, T439S) worked out at 21 ± 5 pmol/min. For the same compound, on ts2 SERT (I291A, T439S) (read-out: KM of serotonin transport), the Km was 4.5 ± 0.6 µM.

By Km is commonly meant the substrate concentration at which the rate is half of its maximum.
